Data taken from US20100284966A1 (priority 2005, published 2010).

Test system: HCV replicon

Cn1cnc([N+](=O)[O-])c1Sc1ncnc2[nH]cnc12 [AZA]
fewer cells (toxicity): ~10%
